Results as given in ChEMBL document CHEMBL1201862, “PubChem BioAssay data set” (2004).
Values belong to the molecule of their own block, whether it stands above or below them. Active and inactive are the calls of the source.

Assays:
HEK293 [1] = assay: NOD2 signaling inhibitors in MDP-stimulated cells, cell-based, uHTS, luminescence (AID 2001); type: functional; details: Homo sapiens
HEK293 [2] = assay: cells; type: functional, cell-based; details: Homo sapiens
[3] = biological target: Nucleotide-binding oligomerization domain-containing protein 2 (Homo sapiens, UniProt Q9HC29); assay: NOD2 signaling inhibitors, cell-based, luminescence, uHTS, HEK293 (AID 1566); type: functional
HEK293 [4] = assay: cells; type: functional, cell-based; details: Homo sapiens; remark: listed apart in the source
HEK293 [5] = assay: cells; type: functional, cell-based; details: Homo sapiens; remark: listed apart in the source
HEK293 [6] = assay: NOD1 signaling inhibitors, primary screen, cell-based, luminescence, uHTS (AID 1578); type: functional; details: Homo sapiens
[7] = biological target: Glyceraldehyde-3-phosphate dehydrogenase (Homo sapiens, UniProt P04406)
[8] = biological target: Alkaline phosphatase, placental type (Homo sapiens, UniProt P05187); assay: PLAP enzyme inhibitors, confirmation, biochemical, luminescence (AID 1512); type: functional
[9] = biological target: T1, Alkaline phosphatase, tissue-nonspecific isozyme (Homo sapiens, UniProt P05186); assay: human TNAP enzyme inhibitors, SAR follow-up, biochemical, luminescent, dose response (AID 1056)
T1 sequence (P05186 whole entry): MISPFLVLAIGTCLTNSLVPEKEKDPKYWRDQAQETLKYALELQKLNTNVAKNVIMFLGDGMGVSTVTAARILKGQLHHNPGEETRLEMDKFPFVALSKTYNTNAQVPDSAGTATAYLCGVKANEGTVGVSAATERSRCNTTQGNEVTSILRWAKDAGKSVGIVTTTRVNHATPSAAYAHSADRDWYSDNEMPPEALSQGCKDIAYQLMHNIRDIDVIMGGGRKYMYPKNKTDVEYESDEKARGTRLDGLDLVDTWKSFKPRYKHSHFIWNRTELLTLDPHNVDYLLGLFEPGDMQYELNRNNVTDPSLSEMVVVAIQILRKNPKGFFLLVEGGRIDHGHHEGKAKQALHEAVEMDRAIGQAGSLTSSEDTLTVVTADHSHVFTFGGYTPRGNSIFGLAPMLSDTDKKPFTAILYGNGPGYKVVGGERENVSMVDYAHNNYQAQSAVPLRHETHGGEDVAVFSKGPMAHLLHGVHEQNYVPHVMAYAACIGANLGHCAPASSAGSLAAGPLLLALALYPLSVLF

[10] = biological target: Dual specificity protein phosphatase 3 (Homo sapiens, UniProt P51452); assay: VHR1 inhibitor Ki determination, SAR follow-up, biochemical, colorimetric (AID 2004)
[11] = biological target: T2, Apoptotic protease-activating factor 1 (Homo sapiens, UniProt O14727); type: functional
T2 sequence (O14727 whole entry): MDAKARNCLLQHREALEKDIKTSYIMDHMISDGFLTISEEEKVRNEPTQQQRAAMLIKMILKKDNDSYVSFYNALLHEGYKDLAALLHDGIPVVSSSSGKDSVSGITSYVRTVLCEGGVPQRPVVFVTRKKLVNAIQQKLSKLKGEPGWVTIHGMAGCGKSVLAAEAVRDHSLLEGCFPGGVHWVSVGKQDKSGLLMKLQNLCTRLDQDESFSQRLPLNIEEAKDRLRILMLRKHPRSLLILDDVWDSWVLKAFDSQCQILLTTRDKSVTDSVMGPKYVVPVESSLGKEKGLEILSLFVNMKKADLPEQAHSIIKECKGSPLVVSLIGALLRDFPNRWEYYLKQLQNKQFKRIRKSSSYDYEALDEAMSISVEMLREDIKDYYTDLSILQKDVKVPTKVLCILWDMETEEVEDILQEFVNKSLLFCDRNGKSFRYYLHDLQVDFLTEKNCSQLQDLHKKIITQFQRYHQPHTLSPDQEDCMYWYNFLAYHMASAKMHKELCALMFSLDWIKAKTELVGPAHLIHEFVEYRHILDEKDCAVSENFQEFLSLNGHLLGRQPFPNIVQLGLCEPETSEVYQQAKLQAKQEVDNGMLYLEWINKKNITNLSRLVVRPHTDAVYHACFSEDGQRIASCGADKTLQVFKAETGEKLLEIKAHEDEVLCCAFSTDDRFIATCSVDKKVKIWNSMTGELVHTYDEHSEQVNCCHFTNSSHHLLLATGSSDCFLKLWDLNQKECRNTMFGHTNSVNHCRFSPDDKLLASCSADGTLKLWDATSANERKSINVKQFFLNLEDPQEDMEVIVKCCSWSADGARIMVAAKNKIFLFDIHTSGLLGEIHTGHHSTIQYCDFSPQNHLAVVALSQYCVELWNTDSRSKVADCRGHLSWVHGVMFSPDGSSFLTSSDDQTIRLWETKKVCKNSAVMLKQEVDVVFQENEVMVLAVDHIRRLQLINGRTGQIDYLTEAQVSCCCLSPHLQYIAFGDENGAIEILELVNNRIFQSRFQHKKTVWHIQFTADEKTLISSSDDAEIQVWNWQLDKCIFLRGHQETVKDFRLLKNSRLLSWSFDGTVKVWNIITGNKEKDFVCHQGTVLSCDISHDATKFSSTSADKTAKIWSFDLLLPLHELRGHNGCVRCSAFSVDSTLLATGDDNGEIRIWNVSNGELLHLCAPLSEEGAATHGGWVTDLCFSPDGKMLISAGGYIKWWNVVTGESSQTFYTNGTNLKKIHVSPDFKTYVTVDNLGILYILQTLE

[12] = test system: Streptococcus sp. 'group A'; assay: growth inhibition of control SK(-) GAS strain, dose response, counter-screen for streptokinase expression inhibitor project, luminescence, kanamycin, BacTiterGlo, confirmation (AID 1900); type: functional, organism-based; details: Streptococcus sp. 'group A'
Streptococcus = assay: Group A Streptococcus viability loss, dose response, counter-screen for streptokinase expression inhibitor project, luminescence, BacTiterGlo (AID 1915); type: functional, organism-based; details: Streptococcus;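 further: potency for reduction of bacterial viability or growth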
INS1 = assay: beta cell apoptosis inhibitors, cytokine rescue, dose response, luminescence, retest (AID 449756); type: functional, cell-based; details: Rattus norvegicus;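 further: cell death triggered by IL-1 beta plus TNF-alpha plus IFN-gamma mixture; protective hits raise ATP signal compared with cytokine alone wells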
[13] = HEp-2 cell cytotoxicity, dose response, cytotoxicity control for RSV inhibitor project, HTS (AID 2410); type: functional; details: human respiratory syncytial virus
[14] = biological target: Neurotensin receptor type 1 (Homo sapiens, UniProt P30989); type: functional;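 further: Image-based confirmatory dose-response assay measuring agonist activity at NTR1; NTR1-expressing U2OS osteosarcoma cells imaged for beta-arrestin GFP spot formation; agonist potency where compounds increase beta-arrestin recruitment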
[15] = biological target: NACHT, LRR and PYD domains-containing protein 1 (Homo sapiens, UniProt Q9C000); assay: NALP1 inhibitors in yeast, dose response, luminescent (AID 488860); type: functional
Saccharomyces cerevisiae = assay: NALP1 inhibitor project selectivity study, Caspase-1/ASC signal blockade IC50 in S. cerevisiae (AID 488863); type: functional, organism-based
Cytochrome P450 3A4 = Cytochrome P450 3A4 (Homo sapiens, UniProt P08684);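 further: CYP3A4 tested as one member of a cytochrome P450 panel screen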
[16] = biological target: T3, Heat shock factor protein 1 (Mus musculus, UniProt P38532); assay: HSF1 potentiators in luciferase reporter cells, confirmation, cell-based, NIH3T3, luminescence, dose retest (AID 435004); type: functional;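 further: stress induced by proteasome inhibitor MG132 added 30 min after compound; luciferase reporter driven by HSF1 response element in NIH3T3 cells; actives raise luminescence as potentiators of the MG132 stress response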
T3 sequence (P38532 whole entry): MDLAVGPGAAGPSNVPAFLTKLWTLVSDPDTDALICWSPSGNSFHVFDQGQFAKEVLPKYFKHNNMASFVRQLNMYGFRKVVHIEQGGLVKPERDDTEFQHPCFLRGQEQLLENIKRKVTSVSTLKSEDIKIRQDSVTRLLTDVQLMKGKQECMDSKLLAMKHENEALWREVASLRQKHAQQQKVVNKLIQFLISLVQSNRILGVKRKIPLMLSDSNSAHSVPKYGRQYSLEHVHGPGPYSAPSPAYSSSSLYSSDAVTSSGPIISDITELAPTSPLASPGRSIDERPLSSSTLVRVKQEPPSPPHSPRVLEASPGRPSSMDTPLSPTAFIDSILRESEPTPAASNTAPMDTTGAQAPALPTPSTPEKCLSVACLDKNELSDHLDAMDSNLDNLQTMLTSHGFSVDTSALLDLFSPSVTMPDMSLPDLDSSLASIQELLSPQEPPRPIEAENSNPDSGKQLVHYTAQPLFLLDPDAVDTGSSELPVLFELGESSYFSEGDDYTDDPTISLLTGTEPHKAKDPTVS

[17] = biological target: T4, Tyrosine-protein phosphatase non-receptor type 7 (Homo sapiens, UniProt P35236); type: functional
T4 sequence (P35236 whole entry): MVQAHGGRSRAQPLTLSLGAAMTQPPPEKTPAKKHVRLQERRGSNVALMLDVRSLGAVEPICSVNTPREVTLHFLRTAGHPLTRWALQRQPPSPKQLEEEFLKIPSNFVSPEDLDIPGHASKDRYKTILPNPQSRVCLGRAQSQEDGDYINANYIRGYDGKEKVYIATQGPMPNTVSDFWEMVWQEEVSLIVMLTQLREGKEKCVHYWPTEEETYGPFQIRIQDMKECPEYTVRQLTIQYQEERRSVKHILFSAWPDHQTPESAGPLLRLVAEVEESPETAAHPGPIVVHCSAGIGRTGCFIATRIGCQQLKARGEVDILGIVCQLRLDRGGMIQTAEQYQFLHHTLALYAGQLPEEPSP

[18] = biological target: T5, Dual specificity protein phosphatase 6 (Rattus norvegicus, UniProt Q64346); type: functional
T5 sequence (Q64346 whole entry): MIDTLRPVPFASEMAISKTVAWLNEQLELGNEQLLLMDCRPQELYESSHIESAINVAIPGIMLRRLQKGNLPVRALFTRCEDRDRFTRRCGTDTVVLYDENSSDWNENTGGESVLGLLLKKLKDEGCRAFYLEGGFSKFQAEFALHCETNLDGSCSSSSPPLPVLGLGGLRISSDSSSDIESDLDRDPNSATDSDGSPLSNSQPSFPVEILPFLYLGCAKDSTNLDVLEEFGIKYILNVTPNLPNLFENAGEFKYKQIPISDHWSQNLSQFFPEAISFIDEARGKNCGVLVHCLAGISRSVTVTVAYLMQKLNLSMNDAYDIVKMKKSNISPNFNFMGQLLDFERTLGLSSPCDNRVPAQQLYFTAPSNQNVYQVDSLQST

[19] = biological target: T5, Dual specificity protein phosphatase 6
Estrogen receptor beta = Estrogen receptor beta (Homo sapiens, UniProt Q92731); assay: ERβ–SRC-3 coactivator interaction inhibitors, confirmation, orthogonal assay, biochemical, ELISA, streptavidin-HRP readout (AID 1060)
[20] = biological target: T4, Tyrosine-protein phosphatase non-receptor type 7; assay: redox-dependent HePTP inhibition, mechanism study, biochemical, fluorescence (AID 2068); type: functional
Ephrin type-A receptor 4 = Ephrin type-A receptor 4 (Mus musculus, UniProt Q03137); assay: inhibitors of EphA4 binding to KYL peptide, primary screen, biochemical, colorimetric, mouse EphA4 (AID 689); type: functional
Genome polyprotein = Genome polyprotein (dengue virus type 2, UniProt P29990); assay: Dengue-2 NS5 methyltransferase inhibitors, primary screen, biochemical, confirmation dose response (AID 588689); type: functional
[21] = biological target: Induced myeloid leukemia cell differentiation protein Mcl-1 (Homo sapiens, UniProt Q07820); type: functional
Induced myeloid leukemia cell differentiation protein Mcl-1, sequence (Q07820 whole entry): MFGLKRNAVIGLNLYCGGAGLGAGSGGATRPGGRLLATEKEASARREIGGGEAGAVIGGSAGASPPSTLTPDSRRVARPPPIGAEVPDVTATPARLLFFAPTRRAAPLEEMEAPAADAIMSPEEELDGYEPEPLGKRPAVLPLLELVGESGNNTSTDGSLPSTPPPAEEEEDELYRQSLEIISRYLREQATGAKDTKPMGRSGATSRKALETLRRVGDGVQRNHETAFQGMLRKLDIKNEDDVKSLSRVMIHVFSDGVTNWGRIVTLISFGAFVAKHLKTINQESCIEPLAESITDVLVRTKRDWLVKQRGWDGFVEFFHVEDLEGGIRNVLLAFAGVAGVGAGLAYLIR

Glyceraldehyde-3-phosphate dehydrogenase, sequence (P04406 whole entry): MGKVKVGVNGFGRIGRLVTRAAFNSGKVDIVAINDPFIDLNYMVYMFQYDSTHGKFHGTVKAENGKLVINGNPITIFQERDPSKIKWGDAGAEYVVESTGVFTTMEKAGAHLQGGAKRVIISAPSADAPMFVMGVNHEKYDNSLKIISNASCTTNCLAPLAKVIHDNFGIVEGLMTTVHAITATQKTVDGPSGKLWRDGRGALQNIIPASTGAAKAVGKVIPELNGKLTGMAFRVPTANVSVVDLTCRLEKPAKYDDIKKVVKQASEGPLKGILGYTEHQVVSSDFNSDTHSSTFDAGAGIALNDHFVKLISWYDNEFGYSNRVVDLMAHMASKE
Neurotensin receptor type 1, sequence (P30989 whole entry, the tested form may be a part): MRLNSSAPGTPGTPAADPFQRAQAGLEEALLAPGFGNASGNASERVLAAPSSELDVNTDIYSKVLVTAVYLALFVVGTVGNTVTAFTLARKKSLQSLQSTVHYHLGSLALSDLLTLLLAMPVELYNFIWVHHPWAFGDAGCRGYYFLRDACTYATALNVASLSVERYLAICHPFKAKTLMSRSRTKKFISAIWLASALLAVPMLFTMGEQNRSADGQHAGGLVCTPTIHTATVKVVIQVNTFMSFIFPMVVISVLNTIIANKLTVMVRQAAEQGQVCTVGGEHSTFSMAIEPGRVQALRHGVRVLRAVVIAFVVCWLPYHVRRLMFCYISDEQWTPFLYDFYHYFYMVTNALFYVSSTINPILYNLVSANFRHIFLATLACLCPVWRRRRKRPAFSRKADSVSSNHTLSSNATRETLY
Alkaline phosphatase, placental type, sequence (P05187 whole entry): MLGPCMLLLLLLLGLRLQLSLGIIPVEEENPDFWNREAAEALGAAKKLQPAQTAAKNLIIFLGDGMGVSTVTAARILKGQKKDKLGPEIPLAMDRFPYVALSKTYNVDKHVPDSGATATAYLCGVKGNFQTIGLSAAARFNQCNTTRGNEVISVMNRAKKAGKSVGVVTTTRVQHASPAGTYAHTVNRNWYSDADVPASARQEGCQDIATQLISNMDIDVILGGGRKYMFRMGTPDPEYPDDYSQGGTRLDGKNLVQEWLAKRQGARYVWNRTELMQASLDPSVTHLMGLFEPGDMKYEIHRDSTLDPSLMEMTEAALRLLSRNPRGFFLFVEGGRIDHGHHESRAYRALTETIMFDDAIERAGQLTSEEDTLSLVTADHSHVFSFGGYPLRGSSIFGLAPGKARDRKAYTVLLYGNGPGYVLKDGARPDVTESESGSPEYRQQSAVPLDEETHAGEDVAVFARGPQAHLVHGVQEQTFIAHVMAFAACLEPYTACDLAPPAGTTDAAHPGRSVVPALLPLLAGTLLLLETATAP
Nucleotide-binding oligomerization domain-containing protein 2, sequence (Q9HC29 whole entry, the tested form may be a part): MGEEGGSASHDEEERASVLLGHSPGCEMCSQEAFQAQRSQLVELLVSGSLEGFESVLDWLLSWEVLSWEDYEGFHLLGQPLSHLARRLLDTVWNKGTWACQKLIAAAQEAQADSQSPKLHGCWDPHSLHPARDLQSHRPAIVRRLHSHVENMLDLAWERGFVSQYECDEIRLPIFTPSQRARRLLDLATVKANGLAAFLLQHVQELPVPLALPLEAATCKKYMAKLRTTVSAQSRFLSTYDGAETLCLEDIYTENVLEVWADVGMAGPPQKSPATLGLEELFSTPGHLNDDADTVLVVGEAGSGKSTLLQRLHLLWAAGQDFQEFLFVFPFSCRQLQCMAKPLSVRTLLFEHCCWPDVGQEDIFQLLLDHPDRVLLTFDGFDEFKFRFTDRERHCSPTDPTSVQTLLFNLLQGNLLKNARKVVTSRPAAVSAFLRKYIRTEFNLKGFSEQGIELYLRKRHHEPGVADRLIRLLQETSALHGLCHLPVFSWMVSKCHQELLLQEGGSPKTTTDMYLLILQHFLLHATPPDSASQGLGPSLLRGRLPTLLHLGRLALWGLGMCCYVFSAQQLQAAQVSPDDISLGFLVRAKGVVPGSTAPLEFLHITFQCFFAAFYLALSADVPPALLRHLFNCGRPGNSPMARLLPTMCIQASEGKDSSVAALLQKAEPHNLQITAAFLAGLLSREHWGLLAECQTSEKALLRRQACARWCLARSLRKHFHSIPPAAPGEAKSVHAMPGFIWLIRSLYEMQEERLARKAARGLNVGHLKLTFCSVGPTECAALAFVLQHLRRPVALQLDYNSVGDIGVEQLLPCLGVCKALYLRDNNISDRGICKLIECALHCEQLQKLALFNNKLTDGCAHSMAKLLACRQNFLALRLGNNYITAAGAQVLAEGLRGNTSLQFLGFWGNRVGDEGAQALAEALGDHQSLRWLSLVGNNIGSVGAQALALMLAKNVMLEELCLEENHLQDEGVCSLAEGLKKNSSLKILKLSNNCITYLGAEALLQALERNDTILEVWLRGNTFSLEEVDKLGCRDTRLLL
Dual specificity protein phosphatase 3, sequence (P51452 whole entry): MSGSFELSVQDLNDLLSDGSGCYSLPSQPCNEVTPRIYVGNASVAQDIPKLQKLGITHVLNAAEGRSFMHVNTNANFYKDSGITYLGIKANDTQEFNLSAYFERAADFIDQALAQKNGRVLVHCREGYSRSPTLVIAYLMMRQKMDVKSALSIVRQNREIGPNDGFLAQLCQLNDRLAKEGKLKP
Estrogen receptor beta, sequence (Q92731 whole entry): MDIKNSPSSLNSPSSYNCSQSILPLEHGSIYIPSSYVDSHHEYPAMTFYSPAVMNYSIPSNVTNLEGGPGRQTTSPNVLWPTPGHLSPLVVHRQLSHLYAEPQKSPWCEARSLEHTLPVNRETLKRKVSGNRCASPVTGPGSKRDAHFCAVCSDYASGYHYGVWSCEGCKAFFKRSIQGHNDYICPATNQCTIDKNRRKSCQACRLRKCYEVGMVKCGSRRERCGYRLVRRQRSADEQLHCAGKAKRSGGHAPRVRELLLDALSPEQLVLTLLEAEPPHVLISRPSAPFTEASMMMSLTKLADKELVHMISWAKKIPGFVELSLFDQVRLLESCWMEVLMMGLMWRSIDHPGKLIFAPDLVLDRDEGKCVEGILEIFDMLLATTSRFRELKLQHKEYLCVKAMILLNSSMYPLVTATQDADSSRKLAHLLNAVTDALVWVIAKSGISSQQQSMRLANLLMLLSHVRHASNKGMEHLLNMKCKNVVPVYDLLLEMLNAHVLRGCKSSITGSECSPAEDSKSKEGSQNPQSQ
Cytochrome P450 3A4, sequence (P08684 whole entry): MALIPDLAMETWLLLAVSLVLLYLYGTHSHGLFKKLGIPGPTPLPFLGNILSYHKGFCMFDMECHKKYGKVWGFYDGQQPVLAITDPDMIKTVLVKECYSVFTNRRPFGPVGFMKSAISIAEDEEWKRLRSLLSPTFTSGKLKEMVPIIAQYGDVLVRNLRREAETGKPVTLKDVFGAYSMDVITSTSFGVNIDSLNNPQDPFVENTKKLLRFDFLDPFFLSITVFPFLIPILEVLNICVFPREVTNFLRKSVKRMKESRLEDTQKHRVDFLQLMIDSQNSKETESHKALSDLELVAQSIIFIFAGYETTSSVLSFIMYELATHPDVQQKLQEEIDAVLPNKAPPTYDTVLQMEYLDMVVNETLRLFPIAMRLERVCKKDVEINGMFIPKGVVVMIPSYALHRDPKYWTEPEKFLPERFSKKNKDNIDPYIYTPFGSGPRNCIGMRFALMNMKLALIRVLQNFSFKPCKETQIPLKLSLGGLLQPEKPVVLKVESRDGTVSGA
Ephrin type-A receptor 4, sequence (Q03137 whole entry): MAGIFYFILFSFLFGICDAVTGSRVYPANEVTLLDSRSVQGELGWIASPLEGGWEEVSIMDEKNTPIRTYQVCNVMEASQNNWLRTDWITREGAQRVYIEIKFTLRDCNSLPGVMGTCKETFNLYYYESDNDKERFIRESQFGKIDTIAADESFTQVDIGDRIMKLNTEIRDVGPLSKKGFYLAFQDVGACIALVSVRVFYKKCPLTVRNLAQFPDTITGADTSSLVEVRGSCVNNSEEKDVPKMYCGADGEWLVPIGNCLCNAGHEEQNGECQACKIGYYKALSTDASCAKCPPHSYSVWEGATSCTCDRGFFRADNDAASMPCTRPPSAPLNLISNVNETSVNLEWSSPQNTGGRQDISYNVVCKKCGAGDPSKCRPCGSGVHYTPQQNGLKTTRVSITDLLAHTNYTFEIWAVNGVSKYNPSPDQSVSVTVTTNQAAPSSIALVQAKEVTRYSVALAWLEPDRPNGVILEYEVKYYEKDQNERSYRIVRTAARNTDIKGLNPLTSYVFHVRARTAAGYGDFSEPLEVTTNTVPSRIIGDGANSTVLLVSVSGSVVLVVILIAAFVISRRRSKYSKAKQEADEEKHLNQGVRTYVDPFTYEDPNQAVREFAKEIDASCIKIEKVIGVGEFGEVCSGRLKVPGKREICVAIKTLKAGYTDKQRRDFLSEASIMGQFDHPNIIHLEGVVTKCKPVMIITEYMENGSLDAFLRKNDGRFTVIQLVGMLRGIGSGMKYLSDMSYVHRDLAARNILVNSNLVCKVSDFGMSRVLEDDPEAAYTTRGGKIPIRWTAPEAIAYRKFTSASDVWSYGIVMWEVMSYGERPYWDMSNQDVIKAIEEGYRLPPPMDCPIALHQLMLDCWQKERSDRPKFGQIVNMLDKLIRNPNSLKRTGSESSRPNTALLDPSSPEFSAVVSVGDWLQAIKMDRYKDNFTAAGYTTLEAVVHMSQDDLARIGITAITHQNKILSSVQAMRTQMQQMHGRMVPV

SMILES: Nc1ncnc(Nc2ccccn2)c1[N+](=O)[O-]
IC50 (HEK293 [1]): 17.6 µM (inactive)
IC50 (HEK293 [2]): 7.86 µM (active)
EC50 [3]: 18.8 µM (active)
IC50 (HEK293 [4]): > 20 µM (inactive)
IC50 (HEK293 [5]): > 20 µM (inactive)
EC50 (HEK293 [6]): 17.8 µM (active)

IC50 [7]: > 100 µM (not active)
IC50 [8]: > 100 µM (inactive)
IC50 [9]: > 100 µM (inactive)
SMILES: COc1ccccc1-c1nc(SCc2cccc(Br)c2)n[nH]1

SMILES: c1ccc2c(CNC34CC5CC(CC(C5)C3)C4)c[nH]c2c1
Ki [10]: 32.9 µM (inactive)

SMILES: Cc1[nH]n(-c2ccccc2)c(=O)c1/C=N/NC(=O)c1cccc(F)c1
IC50 (HEK293 [1]): > 20 µM (inactive)
IC50 (HEK293 [2]): > 20 µM (inactive)
EC50 [3]: > 20 µM (inactive)
IC50 (HEK293 [4]): > 20 µM (inactive)
IC50 (HEK293 [5]): > 20 µM (inactive)
EC50 (HEK293 [6]): 8.44 µM (active)
IC50 [11]: 7.78 µM (active)
EC50 [12]: 4.31 µM (active)
EC50 (Streptococcus): 7.25 µM (active)
AC50 (INS1): 2.03 µM (active)

IC50 [7]: > 100 µM (not active)
IC50 [8]: 4 µM (active)
IC50 [9]: 0.308 µM (active)
SMILES: O=C1C2CC=CCC2C(=O)N1c1n[nH]c(-c2ccccc2)n1 (centres undefined)

SMILES: COC(=O)C(=Cc1ccc(OCc2ccc([N+](=O)[O-])cc2)c(OC)c1)C(=O)OC
IC50 (HEK293 [1]): 8.46 µM (active)
IC50 (HEK293 [2]): 4.31 µM (active)
IC50 (HEK293 [4]): > 20 µM (inactive)
EC50 (HEK293 [6]): > 20 µM (inactive)
CC50 [13]: 6.91 µM (active)
EC50 [14]: 5.98 µM (active)

SMILES: COc1ccccc1N1C(=O)C2CCC(c3ccccc3)CC2C1=O (centres undefined)
IC50 [15]: > 100 µM (inactive)
IC50 (Saccharomyces cerevisiae): > 100 µM (inactive)

AC50 (Cytochrome P450 3A4): 11.2 µM (inconclusive)
EC50 [16]: 6.52 µM (inconclusive)
EC50 [14]: 3.89 µM (active)
SMILES: CCOC(=O)COc1ccc(/C=C/[N+](=O)[O-])c(OCC(=O)OCC)c1

SMILES: O=C1C=CC(=O)N1Nc1c(Cl)cc(Cl)cc1Cl
Ki [10]: 33.7 µM (inactive)

IC50 [7]: > 100 µM (not active)
IC50 [17]: > 100 µM (not active)
IC50 [18]: > 100 µM (inactive)
IC50 [19]: > 100 µM (inactive)
SMILES: NC(=O)[C@H](Cc1ccccc1)n1c(=O)[nH]c(=O)n(-c2ccc(Cl)cc2)c1=O

IC50 (Estrogen receptor beta): 2.59 µM (not active)
IC50 [20]: 1.05 µM (active)
IC50 (Ephrin type-A receptor 4): 21.3 µM (active)
IC50 (Genome polyprotein): 59.1 µM (active)
IC50 [21]: 3.16 µM (active)
SMILES: O=C(NCCc1ccccc1)c1ccc2nc(-c3ccco3)c(-c3ccco3)nc2c1
